Results from patent publication US6630191B1, “Aspartyl dipeptide ester derivatives and sweeteners” (Ajinomoto Co., Inc., priority 1998, dated 2003).
Marks after values point to notes of the source that are not given here.

Legend:
[1] = Sensory evaluation of sweetening potency relative to sugar (4% sucrose aqueous solution); conditions: for Sweetening Potency, compensated value as optical isomer / Sweetening Potency: Relative to sweetening potency of a 4% sucrose aqueous solution; for Sweetening Potency, compensated value as optical isomer: compensated value as optical isomer (DL-homophenylalanine derivatives); for Sweetening potency (relative to sugar): sensory evaluation
Source text: For example, the sweetening potency of N-[N-[3-(3-hydroxy-4-methoxyphenyl)propyl]-L-α-aspartyl]-L-(α-methyl)phenylalanine 1-methyl ester was approximately 18,000 times (relative to sugar), that of N-[N-[3-(3-methoxy-4-hydroxyphenyl)propyl]-L-α-aspartyl]-L-(α-methy)phenylalanine 1-methyl ester was approximately 18,000 times (relative to sugar), that of N-[N-[3-(3-hydroxy-4-methoxyphenyl)propyl]-L-α-aspartyl]-3-cyclohexyl-L-alanine 1-methyl ester was approximately 25,000 times (relative to sugar), that of N-[N-[3-(3-methoxy-4-hydroxyphenyl)propyl]-L-α-aspartyl]-3-cyclohexyl-L-alanine 1-methyl ester was approximately 25,000 times (relative to sugar), that of N-[N-[3-(3-methyl-4-hydroxyphenyl)propyl]-L-(α-aspartyl]-3-cyclohexyl-L-alanine 1-methyl ester was approximately 40,000 times (relative to sugar).
With respect to the aspartyl dipeptide derivatives (represented by the following general formula (5)) formed, the structures and the results of the sensory evaluation are shown in Table 1. [drawing 4]

[2] = reported in WO 94/11391; cited from earlier work

Structure (SMILES)	Sweetening potency (relative to sugar) [1]	Sweetening Potency [1]	other results
COC(=O)C(CCc1ccccc1)NC(=O)[C@H](CC(=O)O)NCCCc1ccc(OC)c(O)c1 (mixture of isomers) [Compound 7, N-[N-[3-(3-Hydroxy-4-methoxyphenyl)propyl]-L-α-aspartyl]-DL-homophenylalanine 1-Methyl Ester]	1,000 times		Sweetening Potency, compensated value as optical isomer [1]: 2000^2)
COC(=O)C(CCc1ccccc1)NC(=O)[C@H](CC(=O)O)NCCCc1ccc(O)c(OC)c1 (mixture of isomers) [Compound 8, N-[N-[3-(3-Methoxy-4-hydroxyphenyl)propyl]-L-α-aspartyl]-DL-homophenylalanine 1-Methyl Ester]	1,200 times		Sweetening Potency, compensated value as optical isomer [1]: 2400^2)
COC(=O)[C@](C)(Cc1ccccc1)NC(=O)[C@H](CC(=O)O)NCCCc1ccc(OC)c(O)c1 [Compound 1, N-[N-[3-(3-Hydroxy-4-methoxyphenyl)propyl]-L-α-aspartyl]-L-(α-methyl)phenylalanine 1-Methyl Ester]	18,000 times	18000	Sweetening potency (relative to sugar) ([1]; listed as N-[N-[3-(3-hydroxy-4-methoxyphenyl)propyl]-L-α-aspartyl]-L-(α-methyl)phenylalani): approximately 18,000 times
COC(=O)[C@](C)(Cc1ccccc1)NC(=O)[C@H](CC(=O)O)NCCCc1ccc(O)c(OC)c1 [Compound 2, N-(N-(3-(3-Methoxy-4-hydroxyphenyl)propyl]-L-α-aspartyl]-L-(α-methyl)phenylalanine 1-Methyl Ester]	18,000 times	18000	Sweetening potency (relative to sugar) ([1]; listed as N-[N-[3-(3-methoxy-4-hydroxyphenyl)propyl]-L-α-aspartyl]-L-(α-methy)phenylalanin): approximately 18,000 times
COC(=O)[C@H](CC1CCCCC1)NC(=O)[C@H](CC(=O)O)NCCCc1ccc(OC)c(O)c1 [Compound 3, N-[N-[3-(3-Hydroxy-4-methoxyphenyl)propyl]-L-α-aspartyl]-3-cyclohexyl-L-alanine 1-Methyl Ester]	25,000 times	25000	Sweetening potency (relative to sugar) ([1]; listed as N-[N-[3-(3-hydroxy-4-methoxyphenyl)propyl]-L-α-aspartyl]-3-cyclohexyl-L-alanine): approximately 25,000 times
COC(=O)[C@H](CC1CCCCC1)NC(=O)[C@H](CC(=O)O)NCCCc1ccc(O)c(OC)c1 [Compound 4, N-[N-(3-(3-Methoxy-4-hydroxyphenyl)propyl]-L-α-aspartyl]-3-cyclohexyl-L-alanine 1-Methyl Ester]	25,000 times	25000	Sweetening potency (relative to sugar) ([1]; listed as N-[N-[3-(3-methoxy-4-hydroxyphenyl)propyl]-L-α-aspartyl]-3-cyclohexyl-L-alanine): approximately 25,000 times
COC(=O)C(NC(=O)C(CC(=O)O)NCCCc1ccc(OC)c(O)c1)c1ccccc1 [Compound 5, N-[N-[3-(3-Hydroxy-4-methoxyphenyl)propyl]-L-α-aspartyl]-L-phenylglycin 1-Methyl Ester]	1,600 times	1600	
COC(=O)C(NC(=O)C(CC(=O)O)NCCCc1ccc(O)c(OC)c1)c1ccccc1 [Compound 6, N-[N-[3-(3-Methoxy-4-hydroxyphenyl)propyl]-L-α-aspartyl]-L-phenylglycin 1-Methyl Ester]	700 times	700	
CCCOC(=O)[C@@H](C)NC(=O)[C@H](CC(=O)O)NCCCc1ccc(OC)c(O)c1 [Compound 9, N-[N-[3-(3-Hydroxy-4-methoxyphenyl)propyl]-L-α-aspartyl]-D-alanine 1-n-Propyl Ester]	800 times	800	
CCCOC(=O)[C@@H](C)NC(=O)[C@H](CC(=O)O)NCCCc1ccc(O)c(OC)c1 [Compound 10, N-[-[3-(3-Methoxy-4-hydroxyphenyl)propyl]-α-aspartyl]-D-alanine 1-n-Propyl Ester]	600 times	600	
COC(=O)C(C)(Cc1ccccc1)NC(=O)C(CC(=O)O)NCCCc1ccc(OC)cc1O [Compound 11, N-[N-[3-(2-Hydroxy-4-methoxyphenyl)propyl]-L-α-aspartyl]-L-(α-methyl) Phenylalanine 1-Methyl Ester]	15,000 times	15000	
COC(=O)[C@H](CC1CCCCC1)NC(=O)[C@H](CC(=O)O)NCCCc1ccc(O)c(C)c1 [Compound 12, N-[N-(3-(3-Methyl-4-hydroxyphenyl)propyl]-L-α-aspartyl]-3-cyclohexyl-L-anine 1-Methyl Ester]	40,000 times	40000	Sweetening potency (relative to sugar) ([1]; listed as N-[N-[3-(3-methyl-4-hydroxyphenyl)propyl]-L-(α-aspartyl]-3-cyclohexyl-L-alanine): approximately 40,000 times
Cc1ccc(CCCN[C@@H](CC(=O)O)C(=O)N[C@@H](CC2CCCCC2)C(=O)O)c(O)c1 [Compound 13]	25,000 times	25000	
COC(=O)[C@H](Cc1ccccc1)NC(=O)[C@H](CC(=O)O)NCCC(C)(C)C [N-[N-(3,3-dimethylbutyl)-L-α--aspartyl]-L-phenylalanine 1-methyl ester]			Sweetening potency, times that of sugar [2]: 10,000 times
COC(=O)C(Cc1ccc(O)cc1)NC(=O)C(CC(=O)O)NCCC(C)(C)C [N-[N-(3,3-dimethylbutyl)-L-α-aspartyll-L-tyrosine 1-methyl ester]			Sweetening potency, times that of sugar [2]: 4,000 times
COC(=O)[C@H](Cc1ccccc1)NC(=O)[C@H](CC(=O)O)NCCCc1ccccc1 [N-[N-(3-phenylpropyl)-L-α-aspartyl]-L-phenylalanine 1-methyl ester]			Sweetening potency, times that of sugar [2]: 1,500 times
COC(=O)[C@H](Cc1ccccc1)NC(=O)[C@H](CC(=O)O)NCCCc1ccc(O)c(OC)c1 [N-[N-[3-(3-methoxy-4-hydroxyphenyl)propyl]-L-α-aspartyl]-L-phenylalanine 1-methyl ester]			Sweetening potency, times that of sugar [2]: 2,500 times
